Data on 8 compounds can be found in ChEMBL document CHEMBL1136561, “Thiophene-based vitronectin receptor antagonists” (Bioorg Med Chem Lett, 2003).

Assay [1] has as its target Integrin alpha-IIb/beta-3 (Homo sapiens, UniProt P05106+P08514). Description: Inhibition of fibrinogen binding to integrin alphaIIb-beta3. It is filed as protein-complex assay.
Assay [2] concerns the target T1, Integrin alpha-V/beta-3 (Homo sapiens, UniProt P05106+P06756). In words: Inhibition of fibrinogen binding to integrin alphaV-beta3 receptor. It is filed as protein-complex assay.
Assay [3] deals with T1, Integrin alpha-V/beta-3. Description: Inhibition of fibrinogen binding to K562 cells expressing integrin alphaV-beta3. It is filed as cell-based.
Assay [4] deals with Integrin alpha-V/beta-3 and alpha-IIb/beta 3 (Homo sapiens) (UniProt P05106+P06756+P08514). In words: Selectivity ratio for alphaIIb-beta3 over alphaV-beta3 integrins. It is filed as protein assay.
Assay [5] has as its target Integrin alpha-V/beta-5 (Homo sapiens, UniProt P06756+P18084). In words: Inhibition of vitronectin binding to HT-29 cells expressing integrin alphaV-beta5. In kind it is cell-based.
Assay [6] deals with Fibronectin receptor (Integrin alpha-5/beta-1 and alpha-V/beta-3) (Homo sapiens) (UniProt P05106+P05556+P06756+P08648). Description: Selectivity ratio for alpha5-beta1 and alphaV-beta3 integrins. It is filed as protein-complex assay.
The species named for assay [7] is Homo sapiens. Description: Selectivity ratio for alphaV-beta5 over alphaV-beta3 integrins.
In assay [8] the target is Integrin alpha-5/beta-1 (Homo sapiens, UniProt P05556+P08648). Description: Inhibition of fibronectin binding to K562 cells expressing integrin alpha5-beta1.
Assay [9] is filed under the species Gallus gallus. Description: Inhibition of VEGF-mediated angiogenesis in the chick CAM assay expressed as capillary formation at 17 ug/mesh conc. In kind it is functional.
Assay [10] is filed under the species Gallus gallus. Description: Inhibition of VEGF-mediated angiogenesis in the chick CAM assay expressed as capillary formation at 33 ug/mesh conc. In kind it is functional.
Assay [11] is filed under the species Gallus gallus. Description: Inhibition of VEGF-mediated angiogenesis in the chick CAM assay expressed as capillary formation at 3 ug/mesh conc. In kind it is functional.

Where only a bound is given, the exact number is not on record here.

T1 sequence (P05106 27-788 limits assumed): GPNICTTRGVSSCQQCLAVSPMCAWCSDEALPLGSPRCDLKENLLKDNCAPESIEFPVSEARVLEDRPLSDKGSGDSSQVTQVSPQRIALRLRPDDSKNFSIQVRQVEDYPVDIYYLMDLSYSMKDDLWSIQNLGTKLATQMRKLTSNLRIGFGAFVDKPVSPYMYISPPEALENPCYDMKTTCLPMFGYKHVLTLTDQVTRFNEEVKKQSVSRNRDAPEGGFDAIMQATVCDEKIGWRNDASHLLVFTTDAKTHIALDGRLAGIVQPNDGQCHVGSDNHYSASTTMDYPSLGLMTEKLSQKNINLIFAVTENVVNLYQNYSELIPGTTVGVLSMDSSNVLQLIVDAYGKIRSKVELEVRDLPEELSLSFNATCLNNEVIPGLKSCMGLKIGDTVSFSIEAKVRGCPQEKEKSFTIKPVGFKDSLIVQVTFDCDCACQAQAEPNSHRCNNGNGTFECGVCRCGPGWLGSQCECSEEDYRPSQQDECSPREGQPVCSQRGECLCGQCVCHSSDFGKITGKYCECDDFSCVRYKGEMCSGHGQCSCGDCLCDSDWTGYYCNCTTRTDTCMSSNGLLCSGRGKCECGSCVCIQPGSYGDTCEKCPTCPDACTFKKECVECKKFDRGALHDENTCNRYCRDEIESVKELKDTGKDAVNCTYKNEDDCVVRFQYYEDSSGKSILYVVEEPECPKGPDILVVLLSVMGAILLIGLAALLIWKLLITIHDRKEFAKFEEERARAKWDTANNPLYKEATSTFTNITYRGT
T1 sequence (P06756 31-889 limits assumed): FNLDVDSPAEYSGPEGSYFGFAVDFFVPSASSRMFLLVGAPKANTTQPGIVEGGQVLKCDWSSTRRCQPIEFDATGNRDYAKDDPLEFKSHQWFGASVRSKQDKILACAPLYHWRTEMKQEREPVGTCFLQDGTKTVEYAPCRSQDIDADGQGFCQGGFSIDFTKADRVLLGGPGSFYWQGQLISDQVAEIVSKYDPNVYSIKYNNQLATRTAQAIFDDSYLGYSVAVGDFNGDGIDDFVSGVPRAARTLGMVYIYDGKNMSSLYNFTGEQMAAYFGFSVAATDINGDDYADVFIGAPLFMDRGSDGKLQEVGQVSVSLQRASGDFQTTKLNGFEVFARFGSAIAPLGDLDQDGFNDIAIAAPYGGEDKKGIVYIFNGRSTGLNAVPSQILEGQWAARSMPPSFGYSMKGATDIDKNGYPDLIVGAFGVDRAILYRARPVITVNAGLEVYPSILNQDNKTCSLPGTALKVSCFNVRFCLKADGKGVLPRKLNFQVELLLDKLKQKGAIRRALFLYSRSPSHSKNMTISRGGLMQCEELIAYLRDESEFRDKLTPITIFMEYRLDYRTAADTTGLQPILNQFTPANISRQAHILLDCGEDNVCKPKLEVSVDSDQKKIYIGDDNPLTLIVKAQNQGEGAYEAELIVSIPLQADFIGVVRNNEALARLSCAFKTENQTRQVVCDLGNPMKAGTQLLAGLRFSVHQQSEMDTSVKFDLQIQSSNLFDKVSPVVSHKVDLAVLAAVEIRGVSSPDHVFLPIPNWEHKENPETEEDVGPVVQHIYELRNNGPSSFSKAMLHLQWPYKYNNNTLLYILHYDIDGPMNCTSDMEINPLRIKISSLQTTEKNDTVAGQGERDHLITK
T1 sequence (P06756 891-1048 limits assumed): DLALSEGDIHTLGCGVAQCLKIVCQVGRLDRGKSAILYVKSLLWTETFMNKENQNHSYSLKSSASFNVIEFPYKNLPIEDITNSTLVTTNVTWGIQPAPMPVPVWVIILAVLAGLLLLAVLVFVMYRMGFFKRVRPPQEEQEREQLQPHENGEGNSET
Sequence of Integrin alpha-IIb/beta-3 (P05106 27-788 limits assumed): as the sequence (P05106 27-788 limits assumed) above
Sequence of Integrin alpha-IIb/beta-3 (P08514 32-887 limits assumed): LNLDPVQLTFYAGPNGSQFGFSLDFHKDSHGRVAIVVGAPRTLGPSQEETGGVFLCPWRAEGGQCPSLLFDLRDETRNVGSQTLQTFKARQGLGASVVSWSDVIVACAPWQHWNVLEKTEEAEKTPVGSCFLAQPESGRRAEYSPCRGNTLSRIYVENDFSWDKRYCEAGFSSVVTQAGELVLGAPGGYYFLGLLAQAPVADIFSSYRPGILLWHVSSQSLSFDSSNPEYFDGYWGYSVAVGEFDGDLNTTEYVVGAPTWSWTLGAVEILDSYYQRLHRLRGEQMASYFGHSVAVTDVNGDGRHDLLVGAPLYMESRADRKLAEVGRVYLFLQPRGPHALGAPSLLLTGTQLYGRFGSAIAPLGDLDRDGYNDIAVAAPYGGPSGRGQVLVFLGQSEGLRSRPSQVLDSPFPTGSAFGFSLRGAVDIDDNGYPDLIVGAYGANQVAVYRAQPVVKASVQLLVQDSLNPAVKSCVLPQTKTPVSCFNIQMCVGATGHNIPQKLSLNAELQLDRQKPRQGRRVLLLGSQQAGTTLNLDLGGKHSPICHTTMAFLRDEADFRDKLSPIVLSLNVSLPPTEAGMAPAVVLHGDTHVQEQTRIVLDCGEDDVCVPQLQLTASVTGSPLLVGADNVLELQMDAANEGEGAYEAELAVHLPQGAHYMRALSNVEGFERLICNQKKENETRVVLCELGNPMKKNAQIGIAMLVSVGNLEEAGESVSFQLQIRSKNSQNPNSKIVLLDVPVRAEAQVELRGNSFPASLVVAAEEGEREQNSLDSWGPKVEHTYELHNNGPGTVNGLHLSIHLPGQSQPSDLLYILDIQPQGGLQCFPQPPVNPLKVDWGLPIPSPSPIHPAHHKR
Sequence of Integrin alpha-IIb/beta-3 (P08514 891-1039 limits assumed): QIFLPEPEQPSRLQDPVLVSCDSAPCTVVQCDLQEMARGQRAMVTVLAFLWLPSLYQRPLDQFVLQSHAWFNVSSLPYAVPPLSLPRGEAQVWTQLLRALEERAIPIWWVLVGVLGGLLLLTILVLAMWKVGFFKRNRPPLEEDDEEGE
Sequence of Integrin alpha-5/beta-1 (P05556 21-798 limits assumed): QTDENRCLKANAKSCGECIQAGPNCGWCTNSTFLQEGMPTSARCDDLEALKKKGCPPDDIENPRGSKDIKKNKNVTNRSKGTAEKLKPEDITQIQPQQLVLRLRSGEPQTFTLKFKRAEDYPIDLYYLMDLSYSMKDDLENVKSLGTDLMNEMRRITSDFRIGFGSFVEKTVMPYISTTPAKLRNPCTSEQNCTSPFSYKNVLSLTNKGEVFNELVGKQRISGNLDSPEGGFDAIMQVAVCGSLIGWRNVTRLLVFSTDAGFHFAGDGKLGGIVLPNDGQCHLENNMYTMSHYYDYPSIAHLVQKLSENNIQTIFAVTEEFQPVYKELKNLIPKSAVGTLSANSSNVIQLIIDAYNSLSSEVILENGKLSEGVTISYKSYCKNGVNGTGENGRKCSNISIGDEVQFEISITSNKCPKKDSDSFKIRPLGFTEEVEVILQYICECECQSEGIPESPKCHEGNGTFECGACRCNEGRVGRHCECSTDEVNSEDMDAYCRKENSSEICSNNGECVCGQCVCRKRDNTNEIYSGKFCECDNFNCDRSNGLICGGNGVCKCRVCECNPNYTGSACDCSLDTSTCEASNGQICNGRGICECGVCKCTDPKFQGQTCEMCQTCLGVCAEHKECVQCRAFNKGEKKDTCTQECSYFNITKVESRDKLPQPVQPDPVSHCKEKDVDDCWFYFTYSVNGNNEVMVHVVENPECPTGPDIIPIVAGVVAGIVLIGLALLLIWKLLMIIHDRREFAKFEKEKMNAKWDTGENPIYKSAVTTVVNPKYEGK
Sequence of Integrin alpha-5/beta-1 (P08648 42-894 limits assumed): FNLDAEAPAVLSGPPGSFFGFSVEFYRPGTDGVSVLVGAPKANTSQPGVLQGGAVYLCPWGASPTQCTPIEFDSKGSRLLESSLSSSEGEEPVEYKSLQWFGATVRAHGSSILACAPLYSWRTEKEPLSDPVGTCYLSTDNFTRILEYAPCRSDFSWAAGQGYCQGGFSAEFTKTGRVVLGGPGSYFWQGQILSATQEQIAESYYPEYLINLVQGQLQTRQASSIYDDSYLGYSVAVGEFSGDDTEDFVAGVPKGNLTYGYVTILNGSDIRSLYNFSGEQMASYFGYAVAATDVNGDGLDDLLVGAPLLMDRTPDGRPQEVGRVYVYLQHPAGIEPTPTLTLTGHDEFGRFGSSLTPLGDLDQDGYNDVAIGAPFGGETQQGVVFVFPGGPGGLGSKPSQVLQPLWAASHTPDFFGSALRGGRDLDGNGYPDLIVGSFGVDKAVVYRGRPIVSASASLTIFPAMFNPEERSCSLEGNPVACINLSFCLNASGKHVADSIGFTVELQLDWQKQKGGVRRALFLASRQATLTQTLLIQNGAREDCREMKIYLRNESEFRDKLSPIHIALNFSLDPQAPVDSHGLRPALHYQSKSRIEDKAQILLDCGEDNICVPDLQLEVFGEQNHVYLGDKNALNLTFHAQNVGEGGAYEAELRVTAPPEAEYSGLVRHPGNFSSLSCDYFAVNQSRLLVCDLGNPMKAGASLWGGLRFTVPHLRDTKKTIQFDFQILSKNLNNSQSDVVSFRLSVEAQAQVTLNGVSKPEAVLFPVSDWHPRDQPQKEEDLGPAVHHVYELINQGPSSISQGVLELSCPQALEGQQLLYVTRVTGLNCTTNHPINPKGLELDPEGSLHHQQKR
Sequence of Integrin alpha-5/beta-1 (P08648 895-1049 limits assumed): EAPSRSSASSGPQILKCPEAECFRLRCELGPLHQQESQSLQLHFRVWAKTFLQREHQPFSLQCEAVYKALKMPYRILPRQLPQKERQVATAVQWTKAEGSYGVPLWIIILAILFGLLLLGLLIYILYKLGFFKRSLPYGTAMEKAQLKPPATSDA

What is called IC50 is the concentration at which inhibition is half-maximal. A low value points to inhibition by little substance. With `N=C(N)NCc1ccccc1-c1ccc(C(=O)NC[C@H](NS(=O)(=O)c2ccccc2)C(=O)O)s1`, the half-maximal inhibitory concentration (IC50) in assay [1] amounted to 0.0058 nM; in assay [2] it was 0.04 nM; in assay [3], 21 nM. Further, in [4], the Ratio is below 0.1.

Regarding `Cc1cc(C)c(S(=O)(=O)N[C@@H](CNC(=O)c2ccc(-c3cccc(NC(=N)N)c3)s2)C(=O)O)c(C)c1`, the IC50 stood at 0.31 nM in assay [1]; 1.4 nM in assay [2]; 0.00092 nM in assay [3]; 2.5 nM in assay [5]; 26 nM in [8]. Also, the results for the Ratio in assay [6], in assay [4] and in [7] were 28300, 300 and 2720, respectively.

On to `N=C(N)Nc1ccccc1-c1ccc(C(=O)NC[C@H](NS(=O)(=O)c2ccccc2)C(=O)O)s1`, for which the results for the IC50 in assay [1], in assay [2] and in assay [3] were 0.25 nM, 5500 nM and 5330 nM, respectively. In assay [4], the Ratio was below 0.1.

One may read the Inhibition as the change of the read-out against control, counted positive when it falls. The low end stands for a weak effect, the high end for a strong effect. As to `Cc1cc(C)c(S(=O)(=O)N[C@@H](CNC(=O)c2ccc(-c3cccc(CN=C(N)N)c3)s2)C(=O)O)c(C)c1.O=C(O)C(F)(F)F`, the Inhibition is reported as 91% in assay [9], 95% in assay [10] and 65% in assay [11]. The IC50 was determined as 0.16 nM in assay [1], 3.4 nM in assay [2] and 11 nM in assay [3]. Also, the Ratio in assay [6] is 6; in [4], below 0.1; in assay [7], 1.

Turning to `N=C(N)NCc1ccc(-c2ccc(C(=O)NC[C@H](NS(=O)(=O)c3ccccc3)C(=O)O)s2)cc1`, the values for the IC50 in assay [1], in assay [2] and in [3] were 6.1 nM, 2.1 nM and 730 nM, respectively. For the same compound, the Ratio in assay [4] was below 0.1.

Take `N=C(N)Nc1ccc(-c2ccc(C(=O)NC[C@H](NS(=O)(=O)c3ccccc3)C(=O)O)s2)cc1`: the IC50 in [1] came out at 0.0013 nM; in assay [2], 71.5 nM; in assay [3], 3790 nM. For the same compound, the Ratio in assay [4] is below 0.1.

Consider `N=C(N)NCc1cccc(-c2ccc(C(=O)NC[C@H](NS(=O)(=O)c3ccccc3)C(=O)O)s2)c1.O=C(O)C(F)(F)F`, for which the Inhibition in assay [9] is given as 42%; in [10] it was 57%; in assay [11], 29%. In addition, the IC50 in assay [1] was found to be 0.34 nM; in [2], 2.2 nM; in assay [3], 0.74 nM. Further, the Ratio in assay [6] was 864; in assay [4], below 0.5; in [7] it was 97.

`N=C(N)Nc1cccc(-c2ccc(C(=O)NC[C@H](NS(=O)(=O)c3ccccc3)C(=O)O)s2)c1.O=C(O)C(F)(F)F`: the values for the Inhibition in [9], in [10] and in assay [11] were 66%, 98% and 29%, respectively. For the same compound, the IC50 in [1] came out at 0.59 nM; in assay [2], 1 nM; in [3], 0.19 nM; in assay [8], 95 nM. Moreover, the Ratio in assay [6] was found to be 500; in [4] it was 3; in assay [7], 33.
